Data published in ChEMBL document CHEMBL3638751, “5-alkynyl-pyridines” (2013).

Molecular target: Phosphatidylinositol 4,5-bisphosphate 3-kinase catalytic subunit alpha isoform (Homo sapiens, UniProt P42336)
Test: Filter-Binding-Assay: This PI3Kalpha assay provides an IC50 value indicative of the activity of the compounds to inhibit PI3 kinase alpha activity. Inhibition of PI3 kinase would be expected to be indicative of activity in treating conditions of excessive or anomalous cell proliferation, such as cancers. See also J. A. Engelman, Nature Reviews Cancer, 2009, 9, 550-562; A. Carnero, Expert Opin. Investig. Drugs, 2009, 18, 1265-1277 and P. Liu et al., Nature Reviews Drug Discovery, 2009, 8, 627-64.

Chain of Phosphatidylinositol 4,5-bisphosphate 3-kinase catalytic subunit alpha isoform (P42336 whole entry, canonical isoform): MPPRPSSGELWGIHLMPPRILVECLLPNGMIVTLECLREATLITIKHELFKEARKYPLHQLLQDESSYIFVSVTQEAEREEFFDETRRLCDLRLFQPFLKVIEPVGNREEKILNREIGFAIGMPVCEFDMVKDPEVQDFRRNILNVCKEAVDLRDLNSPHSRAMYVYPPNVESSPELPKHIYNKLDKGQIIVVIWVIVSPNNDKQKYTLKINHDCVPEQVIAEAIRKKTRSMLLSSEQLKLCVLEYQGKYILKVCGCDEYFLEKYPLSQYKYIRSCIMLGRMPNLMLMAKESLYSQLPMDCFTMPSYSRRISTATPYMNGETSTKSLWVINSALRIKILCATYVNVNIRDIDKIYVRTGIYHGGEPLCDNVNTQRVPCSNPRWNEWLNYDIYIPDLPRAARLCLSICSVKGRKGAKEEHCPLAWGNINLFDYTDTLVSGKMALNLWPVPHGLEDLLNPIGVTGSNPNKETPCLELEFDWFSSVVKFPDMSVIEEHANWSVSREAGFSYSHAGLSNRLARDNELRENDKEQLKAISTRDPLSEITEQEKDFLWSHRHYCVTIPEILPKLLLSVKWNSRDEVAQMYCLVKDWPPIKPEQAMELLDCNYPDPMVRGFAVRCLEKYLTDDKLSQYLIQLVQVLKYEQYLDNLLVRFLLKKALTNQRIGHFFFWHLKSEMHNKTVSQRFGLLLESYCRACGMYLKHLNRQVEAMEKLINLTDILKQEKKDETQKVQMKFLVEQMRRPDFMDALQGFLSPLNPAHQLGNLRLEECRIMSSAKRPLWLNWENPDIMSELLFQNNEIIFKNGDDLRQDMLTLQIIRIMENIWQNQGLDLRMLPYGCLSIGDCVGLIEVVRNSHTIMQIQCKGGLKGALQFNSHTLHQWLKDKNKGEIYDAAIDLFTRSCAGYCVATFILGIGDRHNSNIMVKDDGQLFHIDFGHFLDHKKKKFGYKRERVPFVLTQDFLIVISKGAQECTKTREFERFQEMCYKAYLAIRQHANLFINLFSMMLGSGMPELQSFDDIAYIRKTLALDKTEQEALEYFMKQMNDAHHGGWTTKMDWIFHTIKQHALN

Compound: CCc1ncnc(N2CCC(O)CC2)c1C#Cc1cnc(C)c(NS(C)(=O)=O)c1
- IC50: 0.86 nM

Compound: Cc1ncc(C#Cc2c(C)ncnc2N2CCOCC2)cc1NS(=O)(=O)c1cnn(C)c1
- IC50: 0.56 nM
